Test results published in US20260209250A1, “CRYSTAL FORM OF KRAS G12D INHIBITOR AND PREPARATION METHOD THEREFOR” (priority 2022, published 2026).
pIC50: −log10 of the molar value.

Columns and labels:
Assay type in all cases: cell-based
[1] = test system: AGS cells; experiment: Inhibition of 3D proliferation of AGS cells; details: Homo sapiens, 120 h, CellTiter-Glo 3D
Experimental: (§1) The inhibitory effect of compound 1-p1 on the KRAS target was evaluated by assessing the inhibitory effect of compound 1-p1 on the 3D proliferation of GP2d and AGS cells.
(§2) AGS cells (Nanjing Cobioer, CBP60476) were cultured in a complete culture medium, namely an RPMI1640 culture medium (Hyclone, SH30809.01) containing 10% fetal bovine serum (Corning, 35-076-CV). On the first day of the experiment, the AGS cells were seeded into a 96-well low-adsorption plate (Corning, CLS7007-24EA) with a complete culture medium at a density of 1000 cells/well, with each well containing 90 μL of a cell suspension. The plate was centrifuged at 2000 rpm for 5 min at room temperature and then incubated overnight in a 5% CO2 cell incubator at 37° C.
(§3) The next day, the test compound, serially diluted in a complete culture medium, was added at 10 μL/well. The final concentrations of the compound for GP2d cells were 9 concentration points obtained by 3-fold serial dilution from 1 μM, and the final concentrations of the compound for AGS cells were 9 concentration points obtained by 3-fold serial dilution from 10 μM. A blank control containing 0.5% DMSO was set for both types of cells. […] The luminescence signal values were obtained using a multi-mode microplate reader (PerkinElmer, ENVISION).
(§4) The IC50 values for the inhibitory activity of the compound were calculated using Graphpad Prism software.

[2] = test system: ERK phosphorylation in AGS cells; experiment: Inhibition of ERK phosphorylation in AGS cells (HTRF method); details: Homo sapiens, 1 h incubation, phosphorylated ERK/total ERK ratio
Experimental: In the experiment, the inhibitory effect of the compound on the KRAS target was evaluated by assessing the inhibitory effect of compound 1-p1 on ERK phosphorylation in cells and based on the IC50 value.
AGS cells (Nanjing Cobioer, CBP60476) were cultured in an RPMI1640 (Hyclone, SH30809.01) complete culture medium containing 10% fetal bovine serum. On the first day of the experiment, the AGS cells were seeded into a 96-well plate with a complete culture medium at a density of 40000 cells/well, with each well containing 190 μL of a cell suspension. The plate was incubated overnight in a 5% CO2 cell incubator at 37° C.
The next day, the test compound, serially diluted in a complete culture medium, was added at 10 μL/well. The final concentrations of the compound were 9 concentration points obtained by 5-fold serial dilution from 10 μM. A blank control containing 0.5% DMSO was set. The plate was incubated in a 5% CO2 cell incubator at 37° C. for 1 h. […]
On the third day, the fluorescence values at an excitation wavelength of 337 nm and emission wavelengths of 665 nm and 620 nm were obtained using an ENVISION multi-mode microplate reader (PerkinElmer, ENVISION).
The IC50 value for the inhibitory activity of the compound was calculated using Graphpad Prism software based on the compound concentration and the phosphorylated ERK/total ERK ratio.

[3] = test system: GP2d cells; experiment: Inhibition of 3D proliferation of GP2d cells; details: 120 h, CellTiter-Glo 3D
Experimental: as §1
as §2, with “GP2d” for “AGS”, “CBP60010)” for “CBP60476)”, “a DMEM/high glucose” for “an RPMI1640”, “SH30243.01)” for “SH30809.01)”
as §3, §4

CCc1c(F)ccc2cc(O)cc(-c3nc4c5c(nc(OC[C@@]67CCCN6C[C@H](F)C7)nc5c3F)N3C[C@H]5CC[C@H](N5)[C@H]3CO4)c12 [Compound 1-p1, 5-Ethyl-6-fluoro-4-((5aS,6S,9R)-1-fluoro-12-(((2R,7aS)-2-fluorotetrahydro-1H-pyrrolizin-7a(5H)-yl)methoxy)-5a,6,7,8,9,10-hexahydro-5H-4-oxa-3,10a,11,13,14-pentaaza-6,9-methanonaphtho[1,8-ab]heptalen-2-yl)naphthalen-2-ol]
pIC50 [1]: 8.24
pIC50 [2]: 9.40
pIC50 [3]: 9.05
